The values that follow are results of earlier work, collected in patent US20070117788A1, “Combination of a dopamine D2-receptor agonist and tiotropium or a derivative therof for treating obstructive airways and other inflammatory diseases” (Boehringer Ingelheim Pharma GmbH & Co. KG, priority 2001, published 2007).

Data set [1] has as its system antigen-challenged pig.
Data set [2] concerns δ and ε protein kinase C. Conditions: with ethanol, neural cells in culture.

On to `CCCn1c(=O)c2c(C)nc(CC)n2c2nc(OC)ccc21` [Example D-22888], for which, in data set [1], the anti-allergic effect entry is “strong anti-allergic affect” and the rhinorrhea result was “inhibit rhinorrhea”.

In the case of `Br.CCCN1CCc2cc(O)cc3c2[C@H]1Cc1ccc(O)c(O)c1-3` [R(−)-2,10,11-trihydroxy-N-propyl-noraporphine hydrobromide], the “translocation of δ and ε protein kinase C” value in data set [2] was “acts synergistically with ethanol to cause translocation”.
